Assay [1] addresses T1, 5-lipoxygenase (Rattus norvegicus, UniProt P12527).
T1 construct: ARBL/ARBC Whole Cell 5-Lipoxygenase and Cyclooxygenase Assays; endogenous in cells; host or cells: RBL-1 rat basophilic leukemia cells (American Type Culture Collection)
T1 sequence (P12527 1-673): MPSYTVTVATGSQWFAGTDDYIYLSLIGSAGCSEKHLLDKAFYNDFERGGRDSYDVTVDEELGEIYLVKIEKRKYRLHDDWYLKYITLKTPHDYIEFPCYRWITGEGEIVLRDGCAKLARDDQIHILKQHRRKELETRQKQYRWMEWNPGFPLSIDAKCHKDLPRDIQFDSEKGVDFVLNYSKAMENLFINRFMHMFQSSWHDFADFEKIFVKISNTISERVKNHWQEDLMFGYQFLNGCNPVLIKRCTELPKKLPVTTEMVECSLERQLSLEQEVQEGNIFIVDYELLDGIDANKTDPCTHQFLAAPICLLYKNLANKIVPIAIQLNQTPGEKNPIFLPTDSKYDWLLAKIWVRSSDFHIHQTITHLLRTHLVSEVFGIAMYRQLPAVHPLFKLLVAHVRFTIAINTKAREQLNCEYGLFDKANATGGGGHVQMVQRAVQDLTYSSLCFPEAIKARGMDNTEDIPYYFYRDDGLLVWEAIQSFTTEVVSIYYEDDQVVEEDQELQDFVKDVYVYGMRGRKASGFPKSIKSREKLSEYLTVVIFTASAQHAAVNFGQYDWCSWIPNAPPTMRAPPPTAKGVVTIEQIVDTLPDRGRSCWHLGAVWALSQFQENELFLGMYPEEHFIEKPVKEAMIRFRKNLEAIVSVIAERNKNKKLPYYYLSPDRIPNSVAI
Nature of the assay: ARBL Whole Cell 5-Lipoxygenase Assay in RBL-1 cells (LTB4 RIA). It is filed as cell-based. Conditions: RBL-1 intact cell 5-lipoxygenase; A23187 5 μM. Here is the method:
(§1) ARBL/ARBC Whole Cell 5-Lipoxygenase and Cyclooxygenase Assays
(§2) The rat basophilic leukemia cell line (RBL-1) was obtained from the American Type Culture Collection (Rockville, Md.).
(§3) Radioimmuno assay (RIA) kits of LTB4 and PGF2α were obtained from Amersham (Arlington Heights, Ill.) and Seragen (Boston, Mass.) respectively.
(§4) All tissue culture media were obtained from GIBO (Gran Island, N.Y.).
(§5) RBL-1 cells were grown in culture (suspension) in Eagle's minimum essential medium supplemented with 12% fetal bovine serum and 1:100 antibiotic-antimycotic mixture at 37° C. in an incubator supplied with air-5% carbon dioxide. Cells were harvested by centrifugation. They were washed with cold phosphate buffered saline pH 7.4 (PBS; NaCl, 7.1 g; Na2 HOP4, 1.15 g; KH2 PO4, 0.2 g; and KCl, 0.2 g/L). […] Calcium ionophore A23187 (5 μM) was added and cells were incubated for seven minutes at 37° C. The reaction was stopped by chilling the tubes in ice for ten minutes. Cells were separated by centrifugation and the supernatant was stored at -20°. Aliquots (100 μl) were analyzed for LTB4 and PGF2α using radioimmuno assay kits as provided by the supplier.

The target in assay [2] is T2, cyclooxygenase (Rattus norvegicus, UniProt Q63921).
T2 construct: RBL-1 intact cell cyclooxygenase IC50 values; endogenous in cells; host or cells: RBL-1 rat basophilic leukemia cells (American Type Culture Collection)
T2 sequence (Q63921 27-602): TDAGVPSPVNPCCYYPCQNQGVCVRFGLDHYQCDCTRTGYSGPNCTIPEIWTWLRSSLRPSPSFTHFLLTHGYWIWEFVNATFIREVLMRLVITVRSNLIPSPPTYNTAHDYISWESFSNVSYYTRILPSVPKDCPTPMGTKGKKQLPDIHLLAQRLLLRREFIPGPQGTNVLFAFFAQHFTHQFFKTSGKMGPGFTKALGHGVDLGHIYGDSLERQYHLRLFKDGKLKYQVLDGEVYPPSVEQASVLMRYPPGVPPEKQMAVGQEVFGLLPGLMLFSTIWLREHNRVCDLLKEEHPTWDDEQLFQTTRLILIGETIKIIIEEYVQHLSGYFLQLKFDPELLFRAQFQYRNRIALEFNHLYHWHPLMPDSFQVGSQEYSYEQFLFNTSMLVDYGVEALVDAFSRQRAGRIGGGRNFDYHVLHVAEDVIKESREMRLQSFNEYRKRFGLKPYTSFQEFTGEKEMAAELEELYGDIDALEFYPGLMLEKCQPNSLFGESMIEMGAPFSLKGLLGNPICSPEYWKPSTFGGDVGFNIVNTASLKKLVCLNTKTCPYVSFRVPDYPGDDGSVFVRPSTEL
Description: ARBC Whole Cell Cyclooxygenase Assay in RBL-1 cells (PGF2α RIA). It is filed as cell-based. Conditions: RBL-1 intact cell cyclooxygenase; A23187 5 μM. Here is the method: as §1, §2, §3, §4, §5

Each structure is given as a SMILES string.

The term IC50 denotes the concentration at which inhibition is half-maximal. Turning to `COc1cc(C=Cc2cc(C(F)(F)F)[nH]n2)ccc1O` [Example 10A, 3-[β-(4'-Hydroxy-3'-methoxyphenyl)ethenyl]-5-trifluoromethylpyrazole], the half-maximal inhibitory concentration (IC50) in assay [1] came out at 3.8 µM; in assay [2] it was 4.5 µM. On the same counts, the results for `CCOC(=O)Cn1nc(C)cc1/C=C/c1cc(OC)c(O)c(OC)c1` [Example 10D, (E)-5-[β-(4'-Hydroxy-3',5'-dimethoxyphenyl)ethenyl]3-methyl-1H-pyrazole-1-acetic acid, ethyl ester] are 0.3 µM and above 30 µM. As to `COC(=O)Cn1nc(C=Cc2cc(C(C)(C)C)c(O)c(C(C)(C)C)c2)cc1C` [Example 10G-1, 3-[β-(4'-Hydroxy-3',5'-di-t-butylphenyl)ethenyl]-5-methyl-1H-pyrazole-1-acetic acid, methyl ester], the IC50 in assay [1] is 4.5 µM; in assay [2], above 30 µM. On to `COC(=O)Cn1nc(C)cc1C=Cc1cc(C(C)(C)C)c(O)c(C(C)(C)C)c1` [Example 10G-2, 5-[β-(4'-hydroxy-3',5'-di-t-butylphenyl)ethenyl]-3-methyl-1H-pyrazole-1-acetic acid, methyl ester], for which the figures for the IC50 in assay [1] and in assay [2] were 4.1 µM and above 30 µM, respectively. On to `COC(=O)Cn1nc(C=Cc2cc(OC)c(O)c(OC)c2)cc1C` [Example 10H, 3-[β-(4'-Hydroxy-3',5'-dimethoxyphenyl)ethenyl]-5-methyl-1H-pyrazole-1-acetic acid, methyl ester], for which the IC50 was 9.5 µM in assay [1] and above 30 µM in assay [2]. On the same counts, the results for `COC(=O)Cn1nc(C)cc1C=Cc1ccc(O)c(OC)c1` [Example 10I, 5-[β-(4'-Hydroxy-3'-methoxyphenyl)ethenyl]-3-methyl-1H-pyrazole-1-acetic acid methyl ester] are above 10 µM and above 25 µM. For the molecule `COC(=O)Cn1nc(C=Cc2ccc(O)c(OC)c2)cc1C` [Example 10J, 3-[β-(4'-Hydroxy-3'-methoxyphenyl)ethenyl]-5-methyl-1H-pyrazole-1-acetic acid, methyl ester], the figures for the concentration for half-maximal inhibition (IC50) in assay [1] and in assay [2] were above 10 µM and 30 µM, respectively. Consider `COc1cc(C=Cc2cc(C)n(CC(=O)O)n2)ccc1O` [Example 10K, 3-[β-(4'-Hydroxy-3'-methoxyphenyl)ethenyl]-5-methyl-1H-pyrazole-1-acetic acid], for which the IC50 in assay [1] is above 20 µM. Same read-out and setting: then `COc1cc(C=Cc2cc(C)nn2CC(=O)O)ccc1O` [Example 10L, 5-[β-(4'-Hydroxy-3'-methoxyphenyl)ethenyl]-3-methyl-1H-pyrazole-1-acetic acid], with above 20 µM. With `COc1cc(C=Cc2cc(C)nn2CC(=O)O)cc(OC)c1O` [Example 10M, 5-[β-(4'-Hydroxy-3',5'-dimethoxyphenyl)ethenyl]-3-methyl-1H-pyrazole-1-acetic acid], the IC50 in assay [1] and in assay [2] was above 30 µM throughout. `COc1cc(C=Cc2cc(C)n(CC(=O)O)n2)cc(OC)c1O` [Example 10N, 3-[β-(4'-hydroxy-3',5'-dimethoxyphenyl)ethenyl]-5-methyl-1H-pyrazole-1-acetic acid]: the IC50 in assay [1] was above 20 µM; in assay [2] it was above 30 µM.

On to `Cc1cc(C=Cc2cc(C(C)(C)C)c(O)c(C(C)(C)C)c2)n(CC(=O)O)n1` [Example 10P, 5-[β-(4'-Hydroxy-3',5'-di-t-butylphenyl)ethenyl]-3-methyl-1H-pyrazole-1-acetic acid], for which the concentration for half-maximal inhibition (IC50) in assay [1] was 12 µM; in assay [2], above 30 µM. Regarding `Cc1cc(C=Cc2cc(C(C)(C)C)c(O)c(C(C)(C)C)c2)nn1CC(=O)O` [Example 10Q, 3-[β-(4'-Hydroxy-3',5'-di-t-butylphenyl)ethenyl]-5-methyl-1H-pyrazole-1-acetic acid], the IC50 in assay [1] and in assay [2] was above 30 µM each time. `COc1cc(C=Cc2cc(-c3ccccc3)no2)cc(OC)c1O` [Example 32D, 5-[β(4'-Hydroxy-3',5'-dimethoxyphenyl)ethenyl]-3-phenylisoxazole]: the IC50 in assay [1] is below 1 µM; in assay [2], 5.4 µM. Take `COc1cc(C=Cc2cc(-c3ccccc3)no2)ccc1O` [Example 32E, 5-[β-(4'-Hydroxy-3'-methoxyphenyl)ethenyl]-3-phenyl-isoxazole]: the half-inhibitory concentration (IC50) in assay [1] worked out at 4.5 µM; in assay [2] it was 2.8 µM. Turning to `COc1cccc(C=Cc2cc(C)no2)c1O` [Example 32F, 5-[β-(2'-Hydroxy-3'-methoxyphenyl)ethenyl]-3-methylisoxazole], the IC50 in assay [1] was 12 µM; in assay [2] it was 30 µM.

With `Cc1cc(C=Cc2cc(Cl)cc(Cl)c2O)on1` [Example 32J, 5-[β-(2'-Hydroxy-3',5'-dichlorophenyl)ethenyl]-3-methylisoxazole], the results for the IC50 in assay [1] and in assay [2] were 4.7 µM and above 30 µM, respectively. In assay [1], `COc1cc(C=Cc2cc(CCO)on2)ccc1O` [Example 36A, 3-[β-(4'-Hydroxy-3'-methoxyphenyl)ethenyl]-5-(2'-hydroxyethyl)isoxazole] gave an IC50 of 21.5 µM. `COc1cc(C=Cc2cc(C)[nH]n2)ccc1OC(C)=O` [Example 37, 3-[β-(4'-Acetoxy-3'-methoxyphenyl)ethenyl]-5-methylpyrazole] yielded an IC50 in assay [1] of 3.5 µM.

On to `COC(=O)C(=Cc1cc(OC)c(O)c(OC)c1)c1cc(C)no1` [Example 40, 5-[β-Carbomethoxy-β-(4'-hydroxy-3',5'-dimethoxyphenyl)ethenyl]-3-methylisoxazole], for which the figures for the IC50 in assay [1] and in assay [2] were above 10 µM and above 25 µM, respectively.

For `COC(=O)C(=Cc1cc(Cl)c(O)c(Cl)c1)c1cc(C)no1` [Example 41, 5-[α-Carbomethoxy-β-(4'-hydroxy-3,5-dichlorophenyl)ethenyl]-3-methylisoxazole], the IC50 is above 30 µM in assay [1] and 5 µM in assay [2]. On the same counts, the results for `COC(=O)C(=Cc1cc(C)c(O)c(C)c1)c1cc(C)no1` [Example 43, 5-[α-Carbomethoxy-β-(4'-hydroxy-3',5'-dimethylphenyl)ethenyl]-3-methylisoxazole] are 17 µM and 2.2 µM. Consider `COC(=O)C(=Cc1cc(Br)c(O)c(Br)c1)c1cc(C)no1` [Example 44, 5-[α-Carbomethoxy-β-(4'-hydroxy-3',5'-dibromophenyl)ethenyl]-3-methylisoxazole], for which the IC50 in assay [1] turned out to be 12 µM; in assay [2], 5.2 µM. As for `COC(=O)C(=Cc1cc(Br)c(O)c(OC)c1)c1cc(C)no1` [Example 46A, 5-[α-Carbomethoxy-β-(3'-methoxy-4'-hydroxy-5'-bromophenyl)ethenyl]-3-methylisoxazole], the values for the 50% inhibitory concentration (IC50) in assay [1] and in assay [2] were above 30 µM and 12 µM, respectively. Take `Cc1cc(C(=Cc2cc(C(C)(C)C)c(O)c(C(C)(C)C)c2)C(=O)O)on1` [Example 51, 5-[α-Carboxy-β-(4'-hydroxy-3',5'-bis(1,1-dimethylethyl)phenyl)ethenyl]-3-methylisoxazole]: the values for the IC50 in assay [1] and in assay [2] were 20 µM and 2.5 µM, respectively. As to `Cc1cc(C(=Cc2cc(C)c(O)c(C)c2)C(=O)O)on1` [Example 52, 5-[α-Carboxy-β-(4'-hydroxy-3',5'-dimethylphenyl)ethenyl]-3-methylisoxazole], the IC50 in assay [1] and in assay [2] was above 20 µM each time.
